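Growth conditions: 96-well plates. Treatment: test compound, 48 hours, 5 concentrations. Analysis: linear interpolation between bracketing concentrations; unreached endpoints set to highest concentration. Here, GI50 denotes the concentration required for 50% inhibition of growth. TGI marks complete inhibition of growth.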
How the values were obtained:
Assay in all cases: NCI anticancer screen, dose series, 48 h
CCRF-CEM leukemia = tested on: CCRF-CEM leukemia
HOP-62 NSCLC = tested on: HOP-62 NSCLC
IGROV1 ovarian = tested on: IGROV1 ovarian
NCI/ADR-RES ovarian = tested on: NCI/ADR-RES ovarian
OVCAR-8 ovarian = tested on: OVCAR-8 ovarian
SF-295 CNS = tested on: SF-295 CNS
TK-10 renal = tested on: TK-10 renal
HOP-92 NSCLC = tested on: HOP-92 NSCLC

SMILES	TGI (CCRF-CEM leukemia)	TGI (HOP-62 NSCLC)	TGI (IGROV1 ovarian)	TGI (NCI/ADR-RES ovarian)	TGI (OVCAR-8 ovarian)	TGI (SF-295 CNS)	TGI (TK-10 renal)	GI50 (CCRF-CEM leukemia)	GI50 (HOP-62 NSCLC)	GI50 (HOP-92 NSCLC)	TGI (HOP-92 NSCLC)	GI50 (IGROV1 ovarian)	GI50 (NCI/ADR-RES ovarian)	GI50 (OVCAR-8 ovarian)	GI50 (SF-295 CNS)	GI50 (TK-10 renal)
CC1=C(\C=C/C(C)=C/C=C/C(C)=C/C=C/C=C(C)\C=C\C=C(C)/C=C/C2=C(C)CCCC2(C)C)C(C)(C)CCC1	> 100 µM	> 100 µM	> 100 µM	> 100 µM	> 100 µM	> 100 µM	> 100 µM									
O=C1c2ccc3c4c(ccc(c24)C(=O)N1CCCCO)C(=O)N(CCCCO)C3=O	> 100 µM	12.7 µM	5.87 µM	11 µM	8.45 µM	4.84 µM	32.5 µM	2.74 µM	2.53 µM	3.51 µM	7.98 µM	2.12 µM	2.33 µM	1.33 µM	1.14 µM	5.29 µM
CC/C(=C/c1ccc(OC)cc1)[N+](=O)[O-]	5.72 µM	5.89 µM	8.16 µM	11.5 µM	4.98 µM	23.3 µM	3.28 µM	1.96 µM	2.23 µM	1.74 µM	3.43 µM	2.82 µM	3.13 µM	2.23 µM	11.3 µM	1.75 µM
COc1ccccc1NC(=O)c1sc2ncn(CCOc3ccccc3)c(=O)c2c1C		> 50 µM	> 50 µM	> 50 µM	> 50 µM	> 50 µM	> 50 µM		15.6 µM	> 50 µM	> 50 µM	1.9 µM	1.76 µM	> 50 µM	1.69 µM	> 50 µM
N#Cc1cnn(C(=O)c2nn(-c3ccc(Cl)cc3)cc2O)c1N	4.03 µM	17.4 µM	12.7 µM	8.78 µM	> 44.4 µM	0.646 µM	7.34 µM	0.279 µM	0.392 µM	0.405 µM	27.3 µM	0.365 µM	0.401 µM	0.474 µM	0.163 µM	0.267 µM
COC(=O)C(=O)C(C(=O)C(=O)Nc1cc(C)ccc1C)c1nc2ccccc2[nH]c1=O (stereo not drawn)	> 100 µM	> 100 µM	> 100 µM	> 100 µM	> 100 µM	> 100 µM	> 100 µM				> 100 µM					
C=C(CN1CCN(c2cc(C(F)(F)F)cc(C(F)(F)F)c2)CC1)c1ccc(C(=O)Nc2ccccc2N)cc1	6.51 µM	> 100 µM	27.3 µM	> 100 µM	> 100 µM	62 µM	> 100 µM	1.49 µM	16.2 µM	1.88 µM	7.45 µM	4.2 µM	5.82 µM	9.55 µM	7.29 µM	12.3 µM
O=C(/C=C/c1ccco1)Nc1ncc(Cc2cc(Cl)ccc2Cl)s1	> 100 µM	> 76.5 µM	> 100 µM	0.37 µM	> 100 µM	> 100 µM	> 100 µM	0.0385 µM	0.0645 µM	6.91 µM	> 100 µM	0.0807 µM	0.0327 µM	0.12 µM	0.045 µM	6.88 µM
NP1(Oc2ccc(F)cc2)=NP(N)(Oc2ccc(F)cc2)=NP(Oc2ccc(F)cc2)(Oc2ccc(F)cc2)=N1 (stereo not drawn)	18.9 µM	21.5 µM	6.31 µM	18.4 µM	14.9 µM	15.4 µM	12.3 µM				15.4 µM					
CCc1ccc([OH2+])c(C(=O)[O-])c1.CCc1ccc([OH2+])c(C(=O)[O-])c1.CCc1ccc([OH2+])c(C(=O)[O-])c1.CCc1ccc([OH2+])c(C(=O)[O-])c1.[Cu+2].[Cu+2]		> 100 µM	> 100 µM	> 100 µM	> 100 µM	> 100 µM	> 100 µM		> 100 µM	> 95.9 µM	> 100 µM	> 69.6 µM	17.3 µM	5.59 µM	50.8 µM	> 85.8 µM
O=C(O)CCCCCNCc1cc2cc3c(cc2c2cc(OCc4ccccc4)ccc12)OCO3		5.25 µM	10.1 µM	11.1 µM	3.21 µM	3.61 µM	5.99 µM		2 µM	1.38 µM	2.98 µM	2.96 µM	2.88 µM	1.61 µM	1.84 µM	2.63 µM
NS(=O)(=O)c1cccc(Nc2cc(-c3ccc(F)cc3)[nH]n2)c1	> 25 µM	> 25 µM	> 25 µM	> 25 µM	> 25 µM	> 25 µM	> 25 µM	23 µM	> 25 µM	> 25 µM	> 25 µM	19.3 µM	> 25 µM	19.4 µM	> 25 µM	20.3 µM
COc1cc(C(=O)/C=C/c2c[nH]c3ccccc23)cc(OC)c1OC	14 µM	29 µM	25.3 µM	33.6 µM	15.6 µM		9.56 µM	0.0254 µM	0.0212 µM	0.0269 µM	6.46 µM	0.0713 µM	< 0.0144 µM	0.037 µM		0.188 µM
CC1=C(C(=S)Nc2ccc(Cl)c(C(=O)OC(C)C)c2)SCCO1	44 µM		33.1 µM	43.2 µM	46.5 µM	36.4 µM	54.3 µM				38.5 µM					
CC(C)(C)n1cc(-c2ccnc(NCCCNS(=O)(=O)c3cccc4ccccc34)c2)c(-c2cccc(O)c2)n1	> 100 µM		4.68 µM		6.28 µM	3.52 µM	9.73 µM	2.44 µM		1.71 µM	5.07 µM	2.14 µM		2.38 µM	1.8 µM	2.85 µM
COc1ccc(/C=C\c2cc(OC)c(OC)c(OC)c2)cc1NC(=O)/C=C/c1cc(OC)c(OC)c(OC)c1	> 100 µM	> 100 µM	> 100 µM	> 100 µM	> 100 µM		> 100 µM	4.16 µM	4.62 µM	3.6 µM	> 100 µM	9.47 µM	2.1 µM	5.14 µM		> 100 µM
